These results are taken from patent US20100285957A1, “THIAZOLYLOXYPHENYLAMIDINES OR THIADIAZOLYLOXYPHENYLAMIDINES AND THEIR USE AS FUNGICIDES” (Bayer CropScience AG, priority 2007, published 2010).

One series relates to Sphaerotheca fuliginea. Nature of the series: Sphaerotheca test (cucumber)/protective. Format: in vivo. The note with it: Podosphaera fuliginea, 168 h, 100 ppm active substance, protective, evaluation 7 days after inoculation, read-out: degree of effectiveness. As to the method:
Sphaerotheca Test (Cucumber)/Protective [table] To prepare a suitable active substance composition, 1 part by weight of active substance is mixed with the given amounts of solvents and emulsifier and the concentrate is diluted to the desired concentration using water. For the testing of protective effectiveness, young plants are sprayed with the active substance composition in the application rate given. After the spray coating has been dried on, the plants are inoculated with an aqueous suspension of spores of Sphaerotheca fuliginea. The plants are then placed in a greenhouse at approximately 23° C. and a relative humidity of approximately 70%. Evaluation is carried out 7 days after the inoculation. In this connection, 0% means a degree of effectiveness corresponding to that of the control, while a degree of effectiveness of 100% means that no infestation is observed.

The next series relates to Pyrenophora teres. Nature of the series: Pyrenophora teres test (barley)/protective. The note with it: 500 ppm active substance, protective, evaluation 7-9 days after inoculation, read-out: degree of effectiveness. Format: in vivo. How it is done:
Pyrenophora teres Test (Barley)/Protective
(§1) To prepare a suitable active substance composition, 1 part by weight of active substance is mixed with the given amounts of solvent and emulsifier and the concentrate is diluted to the desired concentration using water.
For the testing of protective effectiveness, young barley plants are sprayed with the active substance composition in the application rate given. 1 day after the treatment, the plants are inoculated with an aqueous suspension of the spores of Pyrenophora teres and then remain at 100% relative humidity and 20° C. for 48 h. Subsequently, the plants are placed in a greenhouse at 80% relative humidity and a temperature of 20° C.
Evaluation is carried out 7-9 days after the inoculation. In this connection, 0% means a degree of effectiveness corresponding to that of the control, while a degree of effectiveness of 100% means that no infestation is observed.

In series [1] the test system is Blumeria graminis f.sp. hordei. Nature of the series: Blumeria graminis test (barley)/protective. Format: in vivo. The note with it: 168 h, 1000 ppm active substance, protective, evaluation 7 days after inoculation, read-out: degree of effectiveness. As to the method: Blumeria graminis Test (Barley)/Protective
as §1
For the testing of protective effectiveness, young plants are sprayed with the active substance composition in the application rate given.
After the spray coating has been dried on, the plants are dusted with spores of Blumeria graminis f.sp. hordei.
The plants are placed in a greenhouse at a temperature of approximately 20° C. and a relative humidity of approximately 80%, in order to encourage the development of mildew pustules.
Evaluation is carried out 7 days after the inoculation. In this connection, 0% means a degree of effectiveness corresponding to that of the control, while a degree of effectiveness of 100% means that no infestation is observed.

The subject of series [2] is Puccinia recondita var. tritici. Nature of the series: Puccinia test (wheat)/protective. Format: in vivo. The note with it: 240 h, 1000 ppm active substance, protective, evaluation 10 days after inoculation, read-out: degree of effectiveness. As to the method: Puccinia Test (Wheat)/Protective
as §1
For the testing of protective effectiveness, young plants are sprayed with the active substance composition in the application rate given. After the spray coating has been dried on, the plants are sprayed with a suspension of the conidia of Puccinia recondita var. tritici. The plants remain in an incubation chamber at 20° C. and 100% relative humidity for 48 hours.
The plants are then placed in a greenhouse at a temperature of approximately 20° C. and a relative humidity of 80%, in order to encourage the development of rust pustules.
Evaluation is carried out 10 days after the inoculation. In this connection, 0% means a degree of effectiveness corresponding to that of the control, while a degree of effectiveness of 100% means that no infestation is observed.

Another series has as its system Uromyces appendiculatus. Nature of the series: Uromyces test (beans)/protective. The settings on record: 240 h, 100 ppm active substance, protective, evaluation 10 days after inoculation, read-out: degree of effectiveness. In kind it is in vivo. How it is done:
Uromyces Test (Beans)/Protective [table] To prepare a suitable active substance composition, 1 part by weight of active substance is mixed with the given amounts of solvents and emulsifier and the concentrate is diluted to the desired concentration using water. For the testing of protective effectiveness, young plants are sprayed with the active substance composition in the application rate given. After the spray coating has been dried on, the plants are inoculated with an aqueous suspension of the spores of the bean rust pathogen Uromyces appendiculatus and then remain in an incubation chamber at approximately 20° C. and 100% relative humidity for 1 day. The plants are then placed in a greenhouse at approximately 21° C. and a relative humidity of approximately 90%. Evaluation is carried out 10 days after the inoculation. In this connection, 0% means a degree of effectiveness corresponding to that of the control, while a degree of effectiveness of 100% means that no infestation is observed.

For the next series, the system named is Alternaria solani. Nature of the series: Alternaria test (tomato)/protective. Format: in vivo. The settings on record: 168 h, 500 ppm active substance, protective, evaluation 7 days after inoculation, read-out: degree of effectiveness. As to the method: Alternaria Test (Tomato)/Protective [table] To prepare a suitable active substance composition, 1 part by weight of active substance is mixed with the given amounts of solvent and emulsifier and the concentrate is diluted to the desired concentration using water. For the testing of protective effectiveness, young tomato plants are sprayed with the active substance composition in the application rate given. 1 day after the treatment, the plants are inoculated with a suspension of the spores of Alternaria solani and then stand at 100% relative humidity and 20° C. for 24 h. Subsequently, the plants stand at 96% relative humidity and a temperature of 20° C. Evaluation is carried out 7 days after the inoculation. In this connection, 0% means a degree of effectiveness corresponding to that of the control, while a degree of effectiveness of 100% means that no infestation is observed.

Where two headings read alike, the source gives them in different places.

For `Cc1cc(Oc2nc(C3(C)CC3)ns2)c(C)cc1N` [2,5-Dimethyl-4-{[3-(1-methylcyclopropyl)-1,2,4-thiadiazol-5-yl]oxy}aniline], the logP in “physchem” (pH 2.3) turned out to be 3.08.
For `Cc1cc(Oc2nc(C3(Cl)CC3)ns2)c(C)cc1/N=C/N1CCCCC1` [Compound 13, 4-{[3-(1-Chlorocyclopropyl)-1,2,4-thiadiazol-5-yl]oxy}-2,5-dimethyl-N-[(1E)-piperidin-1-yl-methylidene]aniline], the pest or weed control at 100 ppm in the series with Sphaerotheca fuliginea is no less than 70%. The pest or weed control at 500 ppm in the series on Pyrenophora teres is no less than 70%. Further, the pest or weed control at 1000 ppm in series [1] and in series [2] was no less than 70% in each case. The compound also yielded a logP in “physchem” (pH 2.3) of 1.76.
Take `Cc1cc(Oc2nc(C3CC3C)ns2)c(C)cc1/N=C/N1CCCCC1` (centres unmarked) [Compound 16, 2,5-Dimethyl-4-{[3-(2-methylcyclopropyl)-1,2,4-thiadiazol-5-yl]oxy}-N-[(1E)-piperidin-1-ylmethylidene]aniline]: the pest or weed control at 100 ppm in the series on Sphaerotheca fuliginea and in the series on Uromyces appendiculatus was no less than 70% each time. The pest or weed control at 500 ppm in the series on Alternaria solani and in the series on Pyrenophora teres was no less than 70% throughout. Moreover, the pest or weed control at 1000 ppm in series [1] and in series [2] was no less than 70% throughout. This compound also came in with a lipophilicity (logP) in the series “physchem” (pH 2.3) of 1.78.
Turning to `Cc1cc(Oc2nc(C3(Cl)CC3)ns2)c(C)cc1N=CN(C)C(C)C` [Compound 18, N′-(4-{[3-(1-Chlorocyclopropyl)-1,2,4-thiadiazol-5-yl]oxy}-2,5-dimethylphenyl)-N-methyl-N-(1-methylethyl)imidoformamide], the pest or weed control at 100 ppm with Sphaerotheca fuliginea and with Uromyces appendiculatus was no less than 70% in each case. Also, the pest or weed control at 500 ppm in the series on Alternaria solani and in the series on Pyrenophora teres was no less than 70% in each case. In addition, the pest or weed control at 1000 ppm in series [1] and in series [2] was no less than 70% each time. For the same compound, in “physchem” (pH 2.3), the logP turned out to be 2.01.
As to `Cc1cc(Oc2nc(C3(Cl)CC3)ns2)c(C)cc1N=CN(C)C` [Compound 19, N′-(4-{[3-(1-Chlorocyclopropyl)-1,2,4-thiadiazol-5-yl]oxy}-2,5-dimethylphenyl)-N,N-dimethylimidoformamide], the pest or weed control at 100 ppm with Sphaerotheca fuliginea and in the series on Uromyces appendiculatus was no less than 70% throughout. Besides, the pest or weed control at 500 ppm in the series on Alternaria solani and in the series on Pyrenophora teres was no less than 70% throughout. Moreover, the pest or weed control at 1000 ppm in series [1] and in series [2] was no less than 70% in each case. Further, the lipophilicity (logP) in the series “physchem” (pH 2.3) was 1.52.
Regarding `Cc1cc(Oc2nc(C3CC3C)ns2)c(C)cc1N=CN(C)C` (centres unmarked) [Compound 20, N′-(2,5-Dimethyl-4-{[3-(2-methylcyclopropyl)-1,2,4-thiadiazol-5-yl]oxy}phenyl)-N,N-di-methylimidoformamide], the pest or weed control at 100 ppm with Sphaerotheca fuliginea and with Uromyces appendiculatus was no less than 70% in each case. Moreover, the pest or weed control at 500 ppm with Alternaria solani and in the series with Pyrenophora teres was no less than 70% each time. Further, the pest or weed control at 1000 ppm in series [1] and in series [2] was no less than 70% in each case. In the series “physchem” (pH 2.3), this compound gave a logP of 1.62.
As to `CCN(C)C=Nc1cc(C)c(Oc2nc(C3(C)CC3)cs2)cc1C` [Compound 22, N′-(2,5-Dimethyl-4-{[4-(1-methylcyclopropyl)-1,3-thiazol-2-yl]oxy}phenyl)-N-ethyl-N-methylimidoformamide], the pest or weed control at 500 ppm in the series with Alternaria solani is no less than 70%. Further, the pest or weed control at 1000 ppm in series [1] and in series [2] was no less than 70% throughout. The values for the logP in the series “physchem” and in the series “physchem” (pH 2.3) were 4.96 and 1.86, respectively.
Take `Cc1cc(Oc2nc(C3(C)CC3(Cl)Cl)ns2)c(C)cc1/N=C/N1CCCCC1` (centres unmarked) [Compound 26, 4-{[3-(2,2-Dichloro-1-methylcyclopropyl)-1,2,4-thiadiazol-5-yl]oxy}-2,5-dimethyl-N-[(1E)-piperidin-1-ylmethylidene]aniline]: the pest or weed control at 100 ppm with Sphaerotheca fuliginea and in the series on Uromyces appendiculatus was no less than 70% each time. Besides, the pest or weed control at 500 ppm with Alternaria solani and in the series on Pyrenophora teres was no less than 70% each time. The same compound showed a logP in “physchem” (pH 2.3) of 2.08.
As to `CCC1(c2nsc(Oc3cc(C)c(/N=C/N4CCCCC4)cc3C)n2)C(C)C1(Cl)Cl` (centres unmarked) [Compound 28, 4-{[3-(2,2-Dichloro-1-ethyl-3-methylcyclopropyl)-1,2,4-thiadiazol-5-yl]oxy}-2,5-dimethyl-N-[(1E)-piperidin-1-ylmethylidene]aniline], the pest or weed control at 100 ppm in the series on Sphaerotheca fuliginea and in the series on Uromyces appendiculatus was no less than 70% throughout. For the same compound, in the series with Pyrenophora teres, the pest or weed control at 500 ppm is no less than 70%. In the series “physchem” (pH 2.3), this compound gave a logP of 2.35.
For the compound `Cc1cc(Oc2nc(C3(C)CC3)ns2)c(C)cc1/N=C/N1CCC1` [Compound 31, N-[(1E)-Azetidin-1-ylmethylidene]-2,5-dimethyl-4-{[3-(1-methylcyclopropyl)-1,2,4-thiadiazol-5-yl]oxy}aniline], the pest or weed control at 1000 ppm in series [1] and in series [2] was no less than 70% each time. This compound came in with a log partition coefficient (logP) in “physchem” (pH 2.3) of 1.6.
For the compound `Cc1cc(Oc2nc(C3CC3C)ns2)c(C)cc1/N=C/N1CCC1` (centres unmarked) [Compound 32, N-[(1E)-Azetidin-1-ylmethylidene]-2,5-dimethyl-4-{[3-(2-methylcyclopropyl)-1,2,4-thiadiazol-5-yl]oxy}aniline], the log partition coefficient (logP) in the series “physchem” (pH 2.3) is 1.96.
On to `CCN(C)C=Nc1cc(Cl)c(Oc2nc(C3(Cl)CC3)ns2)cc1C` [Compound 33, N′-(5-Chloro-4-{[3-(1-chlorocyclopropyl)-1,2,4-thiadiazol-5-yl]oxy}-2-methylphenyl)-N-ethyl-N-methylimidoformamide], for which the pest or weed control at 100 ppm in the series on Sphaerotheca fuliginea was no less than 70%. In addition, the pest or weed control at 500 ppm in the series with Alternaria solani and in the series on Pyrenophora teres was no less than 70% each time. This compound also registered a logP in the series “physchem” (pH 2.3) of 1.72.
Take `Cc1cc(Oc2nc(C3(Cl)CC3)ns2)c(Cl)cc1/N=C/N1CCCCC1` [Compound 34, 5-Chloro-4-{[3-(1-chlorocyclopropyl)-1,2,4-thiadiazol-5-yl]oxy}-2-methyl-N-[(1E)-piperidin-1-ylmethylidene]aniline]: the pest or weed control at 100 ppm in the series with Sphaerotheca fuliginea is no less than 70%. The pest or weed control at 500 ppm with Pyrenophora teres is no less than 70%. The compound also registered a lipophilicity (logP) in the series “physchem” (pH 2.3) of 1.98.

What is called logP is the decadic logarithm of the partition coefficient of the neutral form, usually between octanol and water.
